Test results reported in PubChem BioAssay (NCI).
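Assay format: 96-well plates, 48-hour exposure. Abbreviation: GI50, concentration required for 50% inhibition of growth. TGI is the concentration that stops growth completely.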

Assays:
Assay in all cases: inhibition of tumour cell growth, NCI panel, 48 h
HCT-116 colon = test system: HCT-116 colon
MDA-MB-468 breast = test system: MDA-MB-468 breast
TK-10 renal = test system: TK-10 renal
UACC-62 melanoma = test system: UACC-62 melanoma
786-0 renal = test system: 786-0 renal
NCI-H226 lung = test system: NCI-H226 lung
PC-3 prostate = test system: PC-3 prostate
OVCAR-4 ovarian = test system: OVCAR-4 ovarian
CCRF-CEM leukemia = test system: CCRF-CEM leukemia
HS 578T breast = test system: HS 578T breast
DU-145 prostate = test system: DU-145 prostate
OVCAR-3 ovarian = test system: OVCAR-3 ovarian
SF-539 CNS = test system: SF-539 CNS
MOLT-4 leukemia = test system: MOLT-4 leukemia
MDA-MB-435 = test system: MDA-MB-435
T-47D breast = test system: T-47D breast
MALME-3M melanoma = test system: MALME-3M melanoma
COLO 205 colon = test system: COLO 205 colon
OVCAR-8 ovarian = test system: OVCAR-8 ovarian
MDA-MB-231 breast = test system: MDA-MB-231 breast
KM12 colon = test system: KM12 colon
MCF7 breast = test system: MCF7 breast
NCI-H460 lung = test system: NCI-H460 lung
NCI-H522 lung = test system: NCI-H522 lung
ACHN renal = test system: ACHN renal
SNB-75 CNS = test system: SNB-75 CNS
SNB-19 CNS = test system: SNB-19 CNS
SK-MEL-5 melanoma = test system: SK-MEL-5 melanoma
RPMI-8226 leukemia = test system: RPMI-8226 leukemia
HCT-15 colon = test system: HCT-15 colon
SW-620 colon = test system: SW-620 colon
CAKI-1 renal = test system: CAKI-1 renal
A549 NSCLC = test system: A549 NSCLC
SK-MEL-28 melanoma = test system: SK-MEL-28 melanoma
OVCAR-5 ovarian = test system: OVCAR-5 ovarian
HL-60(TB) leukemia = test system: HL-60(TB) leukemia
K-562 leukemia = test system: K-562 leukemia
HOP-92 NSCLC = test system: HOP-92 NSCLC
BT-549 breast = test system: BT-549 breast
HOP-62 NSCLC = test system: HOP-62 NSCLC
HCC-2998 colon = test system: HCC-2998 colon
A498 renal = test system: A498 renal
IGROV1 ovarian = test system: IGROV1 ovarian
UACC-257 melanoma = test system: UACC-257 melanoma
SN12C renal = test system: SN12C renal
M14 melanoma = test system: M14 melanoma
EKVX NSCLC = test system: EKVX NSCLC
NCI-H23 lung = test system: NCI-H23 lung
U251 CNS = test system: U251 CNS
SF-295 CNS = test system: SF-295 CNS
NCI/ADR-RES ovarian = test system: NCI/ADR-RES ovarian
LOX IMVI melanoma = test system: LOX IMVI melanoma
HT29 colon = test system: HT29 colon
RXF 393 renal = test system: RXF 393 renal
SK-OV-3 ovarian = test system: SK-OV-3 ovarian
SK-MEL-2 melanoma = test system: SK-MEL-2 melanoma
UO-31 renal = test system: UO-31 renal
SF-268 CNS = test system: SF-268 CNS

`Cc1ccccc1[C@H]1C(C(=O)c2ccc(Cl)cc2)C2(N[C@@H]1c1ccccc1)C(=O)Nc1ccc(Br)cc12` (stereo partly specified) showed a GI50 (HCT-116 colon) of 5.26 µM, a TGI (HCT-116 colon) of 10.2 µM and a GI50 (MDA-MB-468 breast) of 5.24 µM. For the same molecule, the TGI (MDA-MB-468 breast) was 10.1 µM, the GI50 (TK-10 renal) was 5.54 µM and the TGI (TK-10 renal) was 10.9 µM. For the same molecule, the GI50 (UACC-62 melanoma) was 4.69 µM, the TGI (UACC-62 melanoma) was 9.48 µM and the GI50 (786-0 renal) was 5.9 µM. For the same molecule, the TGI (786-0 renal) was 10.9 µM, the GI50 (NCI-H226 lung) was 5.39 µM and the TGI (NCI-H226 lung) was 10.6 µM. The GI50 (PC-3 prostate) was 4.09 µM, the TGI (PC-3 prostate) was 9.8 µM and the GI50 (OVCAR-4 ovarian) was 4.72 µM. For the same molecule, the TGI (OVCAR-4 ovarian) was 10.5 µM, the GI50 (CCRF-CEM leukemia) was 7.4 µM and the TGI (CCRF-CEM leukemia) was 22.4 µM. The GI50 (HS 578T breast) was 5.62 µM, the TGI (HS 578T breast) was 18.5 µM and the GI50 (DU-145 prostate) was 5.46 µM. It also gave a TGI (DU-145 prostate) of 10.6 µM, a GI50 (OVCAR-3 ovarian) of 3.77 µM and a TGI (OVCAR-3 ovarian) of 8.32 µM. The GI50 (SF-539 CNS) was 5.99 µM, the TGI (SF-539 CNS) was 11.2 µM and the GI50 (MOLT-4 leukemia) was 6.48 µM. For the same molecule, the TGI (MOLT-4 leukemia) was 23.3 µM, the GI50 (MDA-MB-435) was 5.61 µM and the TGI (MDA-MB-435) was 10.6 µM. The GI50 (T-47D breast) was 4.09 µM, the TGI (T-47D breast) was 9.42 µM and the GI50 (MALME-3M melanoma) was 5.35 µM. The TGI (MALME-3M melanoma) was 10.3 µM, the GI50 (COLO 205 colon) was 5.7 µM and the TGI (COLO 205 colon) was 11.1 µM. It also gave a GI50 (OVCAR-8 ovarian) of 6.35 µM, a TGI (OVCAR-8 ovarian) of 15 µM and a GI50 (MDA-MB-231 breast) of 5.34 µM. It also gave a TGI (MDA-MB-231 breast) of 10.2 µM, a GI50 (KM12 colon) of 5.63 µM and a TGI (KM12 colon) of 11.6 µM. It also gave a GI50 (MCF7 breast) of 4.33 µM, a TGI (MCF7 breast) of 10.2 µM and a GI50 (NCI-H460 lung) of 6.07 µM. The TGI (NCI-H460 lung) was 12.7 µM, the GI50 (NCI-H522 lung) was 5.86 µM and the TGI (NCI-H522 lung) was 11.5 µM. It also gave a GI50 (ACHN renal) of 5.76 µM, a TGI (ACHN renal) of 10.7 µM and a GI50 (SNB-75 CNS) of 2700 nM. For the same molecule, the TGI (SNB-75 CNS) was 9.33 µM, the GI50 (SNB-19 CNS) was 6.08 µM and the TGI (SNB-19 CNS) was 12.1 µM. It also gave a GI50 (SK-MEL-5 melanoma) of 5.83 µM, a TGI (SK-MEL-5 melanoma) of 10.8 µM and a GI50 (RPMI-8226 leukemia) of 7.29 µM. It also gave a TGI (RPMI-8226 leukemia) of 23.4 µM, a GI50 (HCT-15 colon) of 5.39 µM and a TGI (HCT-15 colon) of 10.7 µM. For the same molecule, the GI50 (SW-620 colon) was 5.9 µM, the TGI (SW-620 colon) was 11.7 µM and the GI50 (CAKI-1 renal) was 4.11 µM. For the same molecule, the TGI (CAKI-1 renal) was 8.63 µM, the GI50 (A549 NSCLC) was 5.44 µM and the TGI (A549 NSCLC) was 11.8 µM. For the same molecule, the GI50 (SK-MEL-28 melanoma) was 5.78 µM, the TGI (SK-MEL-28 melanoma) was 10.7 µM and the GI50 (OVCAR-5 ovarian) was 4.89 µM. For the same molecule, the TGI (OVCAR-5 ovarian) was 9.61 µM, the GI50 (HL-60(TB) leukemia) was 9.02 µM and the TGI (HL-60(TB) leukemia) was 28.7 µM. It also gave a GI50 (K-562 leukemia) of 8.79 µM, a TGI (K-562 leukemia) of 36.5 µM and a GI50 (HOP-92 NSCLC) of 2990 nM. For the same molecule, the TGI (HOP-92 NSCLC) was 7.93 µM, the GI50 (BT-549 breast) was 5.56 µM and the TGI (BT-549 breast) was 10.6 µM. It also gave a GI50 (HOP-62 NSCLC) of 5.91 µM, a TGI (HOP-62 NSCLC) of 11.6 µM and a GI50 (HCC-2998 colon) of 5.87 µM. For the same molecule, the TGI (HCC-2998 colon) was 10.9 µM, the GI50 (A498 renal) was 6.11 µM and the TGI (A498 renal) was 11.7 µM. It also gave a GI50 (IGROV1 ovarian) of 4.85 µM, a TGI (IGROV1 ovarian) of 10.4 µM and a GI50 (UACC-257 melanoma) of 5.77 µM. It also gave a TGI (UACC-257 melanoma) of 11.5 µM, a GI50 (SN12C renal) of 4.8 µM and a TGI (SN12C renal) of 9.56 µM. The GI50 (M14 melanoma) was 5.9 µM, the TGI (M14 melanoma) was 11.1 µM and the GI50 (EKVX NSCLC) was 4.33 µM. For the same molecule, the TGI (EKVX NSCLC) was 9.25 µM, the GI50 (NCI-H23 lung) was 5.39 µM and the TGI (NCI-H23 lung) was 10.9 µM. The GI50 (U251 CNS) was 5.6 µM, the TGI (U251 CNS) was 12.1 µM and the GI50 (SF-295 CNS) was 4.77 µM. The TGI (SF-295 CNS) was 9.52 µM, the GI50 (NCI/ADR-RES ovarian) was 5.54 µM and the TGI (NCI/ADR-RES ovarian) was 12.1 µM. The GI50 (LOX IMVI melanoma) was 5.22 µM, the TGI (LOX IMVI melanoma) was 9.99 µM and the GI50 (HT29 colon) was 5.52 µM. The TGI (HT29 colon) was 13.2 µM, the GI50 (RXF 393 renal) was 3.67 µM and the TGI (RXF 393 renal) was 8.34 µM. It also gave a GI50 (SK-OV-3 ovarian) of 6.75 µM, a TGI (SK-OV-3 ovarian) of 15.9 µM and a GI50 (SK-MEL-2 melanoma) of 5.32 µM. For the same molecule, the TGI (SK-MEL-2 melanoma) was 10.7 µM, the GI50 (UO-31 renal) was 4.41 µM and the TGI (UO-31 renal) was 8.94 µM. For the same molecule, the GI50 (SF-268 CNS) was 4.74 µM and the TGI (SF-268 CNS) was 10.2 µM.
